Series [1] concerns freshly isolated rat hepatocytes. As to the kind of experiment: Uptake into freshly isolated rat hepatocytes. The settings on record: 100 μmol Gd/L, 10 min, 37 °C, relative to RC1 (Gd-EOB-DTPA). Type of series: cell-based. The procedure:
Triplicates were performed for each test item.

Series [2] can be described thus: Relaxivity measurements at 1.41 T in water and human plasma. It is filed as physicochemical. The settings on record: 37 °C, normalized to Gd. The procedure:
Relaxivity measurements at 1.41 T were performed using a MiniSpec mq60 spectrometer (Bruker Analytik, Karlsruhe, Germany) operating at a resonance frequency of 60 MHz and a temperature of 37 °C. The T1 relaxation times were determined using the standard inversion recovery (IR) method with a fixed relaxation delay of at least 5×T1. The variable inversion time (TI) was calculated automatically by the standard software of the MiniSpec mq60 (8 steps). The T2 measurements were performed by using a Carr-Purcell-Meiboom-Gill (CPMG) pulse sequence, applying a relaxation delay of at least 5×T1.
Each relaxivity measurement was performed using three different Gd concentrations (3 concentrations between 0.05 and 2 mM). The T1 and T2 relaxation times of the example compounds 1 to 10 were measured in different media for example in water and human plasma. Human plasma preparation: For each experiment fresh blood was taken from a volunteer using 10 mL citrate-tubes (Sarstedt S-Monovette 02.1067.001, 10 mL, Citrate). The 10 mL citrate-tubes were carefully inverted 10 times to mix blood and anticoagulant and centrifuged for 15 min at 1811 g at RT (Eppendorf, Centrifuge 5810R).
The relaxivities ri (where i=1, 2) were calculated based on the measured relaxation rates R, in water and plasma:
where Ri(0) represent the relaxation rate of the respective solvent and CGd the concentration of the compound normalized to the Gadolinium. The Gadolinium concentrations of the investigated solutions were verified by Inductively Coupled Plasma Mass Spectrometry (ICP-MS Agilent 7500a, Waldbronn, Germany).

The target in another series is T1, OATP1B1 (Homo sapiens, UniProt Q9Y6L6).
T1 construct: expressed in transfected cells
T1 sequence (Q9Y6L6 1-691): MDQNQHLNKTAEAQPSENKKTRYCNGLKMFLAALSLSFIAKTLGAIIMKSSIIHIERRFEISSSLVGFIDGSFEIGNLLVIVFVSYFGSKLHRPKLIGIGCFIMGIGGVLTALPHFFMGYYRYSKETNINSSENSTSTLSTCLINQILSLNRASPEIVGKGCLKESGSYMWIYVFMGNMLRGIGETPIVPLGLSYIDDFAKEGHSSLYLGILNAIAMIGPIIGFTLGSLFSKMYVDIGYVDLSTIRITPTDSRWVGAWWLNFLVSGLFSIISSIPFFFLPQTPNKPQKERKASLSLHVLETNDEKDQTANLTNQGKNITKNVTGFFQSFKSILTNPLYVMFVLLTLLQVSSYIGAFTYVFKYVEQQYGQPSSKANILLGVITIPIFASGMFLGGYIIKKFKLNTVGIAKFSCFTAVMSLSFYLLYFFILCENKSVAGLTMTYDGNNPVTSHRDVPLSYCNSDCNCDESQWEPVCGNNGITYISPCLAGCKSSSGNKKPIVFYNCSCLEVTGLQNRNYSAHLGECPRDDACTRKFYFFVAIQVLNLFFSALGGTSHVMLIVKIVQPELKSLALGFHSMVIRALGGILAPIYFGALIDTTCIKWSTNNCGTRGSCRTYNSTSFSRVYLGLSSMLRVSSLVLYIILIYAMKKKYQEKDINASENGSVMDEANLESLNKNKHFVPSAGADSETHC
Briefly: Uptake into stable transfected OATP1B1 HEK 293 cells. Type of series: cell-based. The settings on record: 100 μM, 40 min, relative to RC1 (Gd-EOB-DTPA). As for the experimental part:
Human stable transfected OATP1 B1 human embryonic kidney 293 cells (OATP1 B1 HEK 293, SLCO1B1, Entrez Gene ID: 10599) were used (Leonhardt M et al. Drug Metab Dispos. 2010 July; 38(7):1024-8). The following culture medium was used: 500 mL DMEM (Dulbecco's Modified Eagle Medium—high Glucose, D6429), 50 mL FCS (fetal bovine serum, Fa. Sigma, F7524), 5.8 mL G418 (Geneticin, Fa. Gibco 10131-027) and 5 mL Pen-Strep. (Penicillin-Streptomycin, Fa. Gibco, Ref 15140-122). Cryopreserved cells were shortly thawed in water bath and diluted in 10 mL warm culture medium (37 °C). After medium change the cells were grown for 3d in a 25 cm^2 cell culture flask. After 3 to 5d the cells were transferred into 75 cm^2 flasks. For the splitting the cells were incubated with 1.5 mL trypsin (Trypsin-EDTA (1×) 0.05%, Ref 25300-054 100 ml, Fa. Gibco) for 3-5 min in the incubator (37 °C, 5% CO2 and 95% oxygen). After centrifugation and washing with medium the cells were counted (50 μL cell suspension and 50 μL trypan blue (Trypan Blue Solution, 93595-50 ml, Fa. Fluka). Cells were cultured (1×10^5 cells/well) in poly-D-lysine coated 24-well plates (Fa. Corning, Ref: 354414) in 1.5 mL medium per well. After 48 h in the incubator the medium was changed and 1.5 mL/well sodium butyrate containing medium were added (40 mL culture medium plus 400 μL Na-Butyrate, Fa. Sigma Aldrich B5887-5G, 250 mg in 2.27 mL MilliQ water). After 24 h in the incubator the medium was vacuumed off and 1.5 mL transport buffer was added and incubated for 10 min. The transport buffer contains the following ingredients: 500 mL HBSS (Hank's balanced salt solution, Hyclone, SH30268.01), 5 mL HEPES buffer (4-(2-hydroxyethyl)-1-piperazine-ethanesulfonic acid, Gibco 15630-056) and 3.9 mL glucose (Sigma, G8270-100, 90 g/200 mL MilliQ water). All test items were prepared in transport buffer at a final concentration of 100 μM from stock solutions (180 to 500 mM concentration). The OATP1B1 HEK 293 cells were incubated with test solutions (test item in transport buffer 500 μL) for 40 min on a thermoshaker without shaking (PHMP, Fa. Grant Bio). Triplicates were performed for each test item. After incubation the cells were washed with 2 mL of cold PBS (+) buffer (Dulbeccos PBS+, Fa. Gibco). […] As a reference standard Gd-EOB-DTPA (gadoxetate) is used in the same well plate. The OATP1B1 HEK 293 uptake of the test compound is calculated relative to gadoxetate (resulting in the unit % of RC1).

Turning to `CCCCOc1ccc(C[C@H]2CN(CC(=O)[O-])CCN(CC(=O)[O-])CCN(CC(=O)O)CCN2CC(=O)[O-])cc1.[Gd+3]` (single isomer, unassigned; stereoisomer 2) [Example 13], the Uptake rat hepatocytes in series [1] is listed as 137 % of RC1. In series [2], this molecule yielded a r1 human plasma of 9.8 L/mmol/s and a r1 water of 5.3 L/mmol/s. Further, the “Uptake into OATP1B1-HEK 293 cells” value at OATP1B1 is listed as 847 % of RC1.
The matching figures for `CCOc1ccc(CC2CN(CC(=O)[O-])CCN(CC(=O)[O-])CCN(CC(=O)O)CCN2CC(=O)[O-])cc1.[Gd+3]` (centres unmarked) [Example 7, Gadolinium-2,2′,2″-[10-(carboxymethyl)-2-(4-ethoxybenzyl)-1,4,7,10-tetraazacyclododecane-1,4,7-triyl]triacetate]: 73 % of RC1, 6.2 L/mmol/s, 4.5 L/mmol/s and 103 % of RC1.
On the same counts, the results for `CCOCCOCCOCCOc1ccc(C[C@H]2CN(CC(=O)[O-])CCN(CC(=O)[O-])CCN(CC(=O)O)CCN2CC(=O)[O-])cc1.[Gd+3]` [Example 5, Gadolinium-2,2′,2″-[(2S)-10-(carboxymethyl)-2-(4-{2-[2-(2-ethoxyethoxy)ethoxy]ethoxy}benzyl)-1,4,7,10-tetraazacyclododecane-1,4,7-triyl]triacetate] are 57 % of RC1, 5.7 L/mmol/s, 5.1 L/mmol/s and 78 % of RC1.
Take `COCCOCCOCCOc1ccc(C[C@@H]2CN(CC(=O)[O-])CCN(CC(=O)[O-])CCN(CC(=O)O)CCN2CC(=O)[O-])cc1.[Gd+3]` [Example 3, Gadolinium-2,2′,2″-[(2R)-10-(carboxymethyl)-2-(4-{2-[2-(2-methoxyethoxy)ethoxy]ethoxy}benzyl)-1,4,7,10-tetraazacyclododecane-1,4,7-triyl]triacetate]: the Uptake rat hepatocytes in series [1] is recorded as 49 % of RC1. Further, in series [2], the r1 human plasma stood at 6.8 L/mmol/s and the r1 water is 5.0 L/mmol/s. Besides, the “Uptake into OATP1B1-HEK 293 cells” value on OATP1B1 is 120 % of RC1.
The matching figures for `CCOc1ccc(C[C@H]2CN(CC(=O)[O-])CCN(CC(=O)[O-])CCN(CC(=O)O)CCN2CC(=O)[O-])cc1.[Gd+3]` (single isomer, unassigned; stereoisomer 1) [Example 10]: 104 % of RC1, 6.4 L/mmol/s, 4.8 L/mmol/s and 212 % of RC1.
In the case of `CCCCOc1ccc(C[C@H]2CN(CC(=O)[O-])CCN(CC(=O)[O-])CCN(CC(=O)O)CCN2CC(=O)[O-])cc1.[Gd+3]` (single isomer, unassigned; stereoisomer 1) [Example 12], the Uptake rat hepatocytes in series [1] is on record as 110 % of RC1. In addition, in series [2], the r1 human plasma turned out to be 8.8 L/mmol/s and the r1 water is 4.7 L/mmol/s. For the same molecule, at OATP1B1, the “Uptake into OATP1B1-HEK 293 cells” value is recorded as 119 % of RC1.
In the case of `CCOCCOc1ccc(C[C@H]2CN(CC(=O)[O-])CCN(CC(=O)[O-])CCN(CC(=O)O)CCN2CC(=O)[O-])cc1.[Gd+3]` [Example 4, Gadolinium-2,2′,2″-{(2S)-10-(carboxymethyl)-2-[4-(2-ethoxyethoxy)benzyl]-1,4,7,10-tetraazacyclododecane-1,4,7-triyl}triacetate], the Uptake rat hepatocytes in series [1] is recorded as 67 % of RC1. In series [2], this molecule registered a r1 human plasma of 6.6 L/mmol/s and a r1 water of 4.8 L/mmol/s. Besides, at OATP1B1, the “Uptake into OATP1B1-HEK 293 cells” value is on record as 65 % of RC1.
On to `CCOc1ccc(CC2CN(CC(=O)[O-])CCN(CC(=O)[O-])CCN(CC(=O)O)CCN2CC(=O)[O-])cc1.[Gd+3]` (single isomer, unassigned; diastereomer 2) [Example 9, Gadolinium-2,2′,2″-[10-(carboxymethyl)-2-(4-ethoxybenzyl)-1,4,7,10-tetraazacyclododecane-1,4,7-triyl]triacetate (racemic diastereomer 2)], for which the Uptake rat hepatocytes in series [1] is 42 % of RC1. In series [2], this molecule displayed a r1 human plasma of 5.6 L/mmol/s and a r1 water of 4.3 L/mmol/s. The “Uptake into OATP1B1-HEK 293 cells” value on OATP1B1 is 60 % of RC1.
Turning to `CCOCCOCCOc1ccc(C[C@H]2CN(CC(=O)[O-])CCN(CC(=O)[O-])CCN(CC(=O)O)CCN2CC(=O)[O-])nc1.[Gd+3]` [Example 6, Gadolinium 2,2′,2″-[(2S)-10-(carboxymethyl)-2-({5-[2-(2-ethoxyethoxy)ethoxy]pyridin-2-yl}methyl)-1,4,7,10-tetraazacyclododecane-1,4,7-triyl]triacetate], the Uptake rat hepatocytes in series [1] was 47 % of RC1. In series [2], the r1 human plasma is 5.9 L/mmol/s and the r1 water stood at 5.3 L/mmol/s. Moreover, the “Uptake into OATP1B1-HEK 293 cells” value on OATP1B1 was 174 % of RC1.
In the case of `CCOc1ccc(CC2CN(CC(=O)[O-])CCN(CC(=O)[O-])CCN(CC(=O)O)CCN2CC(=O)[O-])cc1.[Gd+3]` (single isomer, unassigned; diastereomer 1) [Example 8, Gadolinium-2,2′,2″-[10-(carboxymethyl)-2-(4-ethoxybenzyl)-1,4,7,10-tetraazacyclododecane-1,4,7-triyl]triacetate (racemic diastereomer 1)], the Uptake rat hepatocytes in series [1] was 143 % of RC1. In series [2], this molecule gave a r1 human plasma of 6.5 L/mmol/s and a r1 water of 4.7 L/mmol/s. On OATP1B1, the “Uptake into OATP1B1-HEK 293 cells” value is 208 % of RC1.
Regarding `CCOc1ccc(C[C@H]2CN(CC(=O)[O-])CCN(CC(=O)[O-])CCN(CC(=O)O)CCN2CC(=O)[O-])cc1.[Gd+3]` (single isomer, unassigned; stereoisomer 2) [Example 11], the Uptake rat hepatocytes in series [1] is recorded as 49 % of RC1. For the same molecule, in series [2], the r1 human plasma came out at 6.2 L/mmol/s and the r1 water was determined as 4.4 L/mmol/s. Also, at OATP1B1, the “Uptake into OATP1B1-HEK 293 cells” value is 96 % of RC1.

The record behind these values is patent publication US20260365677A1, “NEW CONTRAST AGENTS FOR USE IN DIAGNOSTIC IMAGING” (Bayer Aktiengesellschaft, priority 2022, published 2026).
